# Measurements taken from US7666307B2, “Particle size reduction of bioactive compounds” (K.U. Leuven Research & Development, priority 2003, dated 2010).
# Assays:
# [1] = cited from earlier work
# [2] = Dissolution test of loperamide samples, USP 24 paddle method, HPLC; type: physicochemical; conditions: 37 °C, paddle 100 rpm
# Procedure: Four different samples containing loperamide (commercially available from Janssen Pharmaceutica, Beerse, Belgium) were prepared and their dissolution profiles were measured. 1 g/l of loperamide and 10 g/l of Aerosil 380 (a silicate commercially available from Degussa, Dusseldorf, Germany) were mixed with bi-distilled water in a mortar. An untreated sample was prepared by fast solidification of part of this suspension in a pre-cooled ball that was kept in liquid nitrogen followed by freeze-drying. […]
# Dissolution experiments were performed in a SR8 PLUS Hanson dissolution test station (commercially available from Chatsworth, United States) while using the USP 24 method (paddle method, 100 rpm). […] The corresponding concentrations were determined from the calibration curve with HPLC.
# The HPLC system used for this determination consisted of LiChroGraph® L-7100 HPLC pump, an auto-sampler model L-7200 equipped with a 100 μl loop, a UV detector model L-7400 set at 220 nm, and an Interface D-7000, all from commercially available from Merck-Hitachi (Darmstadt, Germany). UV signals were monitored and peaks were integrated using the D-7000 HSM software. […]
smiles,measurement,setting,value
C#C[C@]1(O)CC[C@H]2[C@@H]3CCC4=Cc5oncc5C[C@]4(C)[C@H]3CC[C@@]21C [danazol],size to which 10% of the particles are reduced,"[1]; dispersion refined by electric field, U.S. Pat. No. 5,503,723",180 nm
CN(C)C(=O)C(CCN1CCC(O)(c2ccc(Cl)cc2)CC1)(c1ccccc1)c1ccccc1 [loperamide],dissolution rate versus corresponding untreated sample,[2]; magnetic treatment in the presence of a silicate (Aerosil),significantly increased
same,dissolution rate versus corresponding untreated sample,[2]; magnetic treatment in the presence of a surfactant (Tween 80),significantly increased
CCCCNc1ccc(C(=O)OCCN(C)C)cc1 [tetracaine],average particle diameter,"[1]; aqueous nanosuspensions, U.S. Pat. No. 5,858,410",91 nm
